Experimental data published in PMC4303209, “A novel phosphatidylinositol 3-kinase (PI3K) inhibitor directs a potent FOXO-dependent, p53-independent cell cycle arrest phenotype characterized by the differential induction of a subset of FOXO-regulated genes” (Breast Cancer Research : BCR, 2014).

System: MCF-7 breast cancer cells
Experiment: Microarray gene expression analysis (Agilent whole human genome 4 x 44K; compound vs DMSO, LIMMA log2 fold change)
Format: cell-based

Oc1cccc(-c2nc(N3CCOCC3)c3oc4ncccc4c3n2)c1 [PI-103]
EYA1 log2FC (gene EYA1 (2138), apoptosis genes): 0.027
log2FC EYA1 (gene EYA1 (Gene 2138), cell cycle genes): 0.027
FABP1 log2FC (gene FABP1 (2168), apoptosis genes): -0.014
FAIM2 log2FC (gene FAIM2 (23017), apoptosis genes): 0.077
FAM3B log2FC (gene FAM3B (54097), apoptosis genes): -0.110
FAM32A log2FC (gene FAM32A (26017), apoptosis genes): -0.300
log2FC FAM32A (gene FAM32A (Gene 26017), cell cycle genes): -0.30
log2FC (gene FAM58A (Gene 92002), cell cycle genes): 0.17
FAS log2FC (gene FAS (355), apoptosis genes): -0.278
log2FC (gene FBXL15 (Gene 79176), cell cycle genes): 0.25
log2FC FGFR1OP (gene FGFR1OP (Gene 11116), cell cycle genes): -0.20
FIS1 log2FC (gene FIS1 (51024), apoptosis genes): 0.161
FKSG2 log2FC (gene FKSG2 (59347), apoptosis genes): -0.076
log2FC (gene FMN2 (Gene 56776), cell cycle genes): 0.00262
FOXB1 log2FC (gene FOXB1 (27023), apoptosis genes): -0.433
log2FC (gene FSD1 (Gene 79187), cell cycle genes): -0.09
GADD45G log2FC (gene GADD45G (10912), apoptosis genes): -0.195
GAPDH log2FC (gene GAPDH (2597), apoptosis genes): 0.013
log2FC (gene GAS2L1 (Gene 10634), cell cycle genes): -0.26
log2FC GAS2L2 (gene GAS2L2 (Gene 246176), cell cycle genes): -0.00222
GAS6 log2FC (gene GAS6 (2621), apoptosis genes): -0.103
GATA6 log2FC (gene GATA6 (2627), apoptosis genes): 0.052
log2FC GATA6 (gene GATA6 (Gene 2627), cell cycle genes): 0.05
GCG log2FC (gene GCG (2641), apoptosis genes): 0.035
GCLM log2FC (gene GCLM (2730), apoptosis genes): -0.246
GCM2 log2FC (gene GCM2 (9247), apoptosis genes): -0.063
log2FC (gene GEM (Gene 2669), cell cycle genes): 0.84
GFRAL log2FC (gene GFRAL (389400), apoptosis genes): -0.028
GHRL log2FC (gene GHRL (51738), apoptosis genes): -0.060
GIMAP5 log2FC (gene GIMAP5 (55340), apoptosis genes): 0.028
GJB6 log2FC (gene GJB6 (10804), apoptosis genes): 0.090
log2FC (gene GOLGA2 (Gene 2801), cell cycle genes): 0.24
log2FC (gene GORASP1 (Gene 64689), cell cycle genes): 0.05
log2FC (gene GORASP2 (Gene 26003), cell cycle genes): -0.48
GPI log2FC (gene GPI (2821), apoptosis genes): 0.047
GPR65 log2FC (gene GPR65 (8477), apoptosis genes): -0.016
GRK1 log2FC (gene GRK1 (6011), apoptosis genes): -0.053
log2FC (gene GTPBP8 (Gene 29083), cell cycle genes): 0.10
log2FC (gene GTSE1 (Gene 51512), cell cycle genes): -0.33
log2FC H1FOO (gene H1FOO (Gene 132243), cell cycle genes): 0.05
HCLS1 log2FC (gene HCLS1 (3059), apoptosis genes): 0.112
log2FC (gene HELLS (Gene 3070), cell cycle genes): 0.14
HIPK3 log2FC (gene HIPK3 (10114), apoptosis genes): -0.044
log2FC HORMAD2 (gene HORMAD2 (Gene 150280), cell cycle genes): 0.09
log2FC HPGD (gene HPGD (Gene 3248), cell cycle genes): 0.065
HPN log2FC (gene HPN (3249), apoptosis genes): -0.076
HTRA2 log2FC (gene HTRA2 (27429), apoptosis genes): 0.078
log2FC HTRA2 (gene HTRA2 (Gene 27429), cell cycle genes): 0.08
IFI6 log2FC (gene IFI6 (2537), apoptosis genes): 0.0043
IFNA2 log2FC (gene IFNA2 (3440), apoptosis genes): 0.014
IFNB1 log2FC (gene IFNB1 (3456), apoptosis genes): 0.022
IL1A log2FC (gene IL1A (3552), apoptosis genes): -0.067
IL2RA log2FC (gene IL2RA (3559), apoptosis genes): -0.038
IL2RB log2FC (gene IL2RB (3560), apoptosis genes): -0.066
IL12A log2FC (gene IL12A (3592), apoptosis genes): -0.262
log2FC IL12A (gene IL12A (Gene 3592), cell cycle genes): -0.26
IL12B log2FC (gene IL12B (3593), apoptosis genes): -0.023
IL17A log2FC (gene IL17A (3605), apoptosis genes): 0.037
IL19 log2FC (gene IL19 (29949), apoptosis genes): -0.032
ILK log2FC (gene ILK (3611), apoptosis genes): -0.047
log2FC ILKAP (gene ILKAP (Gene 80895), cell cycle genes): -0.08
INSL6 log2FC (gene INSL6 (11172), apoptosis genes): 0.047
ISL1 log2FC (gene ISL1 (3670), apoptosis genes): -0.142
ITGA6 log2FC (gene ITGA6 (3655), apoptosis genes): -0.139
ITGB2 log2FC (gene ITGB2 (3689), apoptosis genes): 0.148
ITM2C log2FC (gene ITM2C (81618), apoptosis genes): 0.019
log2FC KATNB1 (gene KATNB1 (Gene 10300), cell cycle genes): 0.26
log2FC KCNA5 (gene KCNA5 (Gene 3741), cell cycle genes): -0.0139
KDR log2FC (gene KDR (3791), apoptosis genes): -0.033
log2FC (gene KIAA0101 (Gene 9768), cell cycle genes): 0.28
KIAA1324 log2FC (gene KIAA1324 (57535), apoptosis genes): -0.031
log2FC KIF2B (gene KIF2B (Gene 84643), cell cycle genes): -0.17
log2FC (gene KIF13A (Gene 63971), cell cycle genes): 0.06
log2FC (gene KIF23 (Gene 9493), cell cycle genes): 0.55
log2FC KIF25 (gene KIF25 (Gene 3834), cell cycle genes): 0.00228
KLF4 log2FC (gene KLF4 (9314), apoptosis genes): -0.178
KRT20 log2FC (gene KRT20 (54474), apoptosis genes): -0.013
LALBA log2FC (gene LALBA (3906), apoptosis genes): -0.012
log2FC LATS1 (gene LATS1 (Gene 9113), cell cycle genes): 0.0843
log2FC (gene LATS2 (Gene 26524), cell cycle genes): 0.38
LCMT1 log2FC (gene LCMT1 (51451), apoptosis genes): 0.003
LCN2 log2FC (gene LCN2 (3934), apoptosis genes): 0.063
log2FC (gene LEMD3 (Gene 23592), cell cycle genes): 0.29
LGALS1 log2FC (gene LGALS1 (3956), apoptosis genes): 0.053
LGALS12 log2FC (gene LGALS12 (85329), apoptosis genes): 0.050
LGALS14 log2FC (gene LGALS14 (56891), apoptosis genes): 0.104
log2FC (gene LMNA (Gene 4000), cell cycle genes): -0.0134
LRP1 log2FC (gene LRP1 (4035), apoptosis genes): 0.043
log2FC (gene LRP6 (Gene 4040), cell cycle genes): -0.12
log2FC (gene LSM11 (Gene 134353), cell cycle genes): 0.09
LTA log2FC (gene LTA (4049), apoptosis genes): 0.136
LTF log2FC (gene LTF (4057), apoptosis genes): 0.014
MAD2L1 log2FC (gene MAD2L1 (4085), apoptosis genes): -0.145
MAEL log2FC (gene MAEL (84944), apoptosis genes): -0.172
log2FC MAEL (gene MAEL (Gene 84944), cell cycle genes): -0.17
MAGED1 log2FC (gene MAGED1 (9500), apoptosis genes): -0.047
MAGEH1 log2FC (gene MAGEH1 (28986), apoptosis genes): 0.025
MAP2K5 log2FC (gene MAP2K5 (5607), apoptosis genes): -0.018
MAP2K7 log2FC (gene MAP2K7 (5609), apoptosis genes): 0.032
log2FC (gene MAP3K8 (Gene 1326), cell cycle genes): 0.0265
log2FC (gene MAP4 (Gene 4134), cell cycle genes): -0.23
MAPK1 log2FC (gene MAPK1 (5594), apoptosis genes): 0.017
log2FC (gene MAPK4 (Gene 5596), cell cycle genes): -0.08
log2FC (gene MAPK6 (Gene 5597), cell cycle genes): 0.12
MAPK8 log2FC (gene MAPK8 (5599), apoptosis genes): -0.015
MAPK9 log2FC (gene MAPK9 (5601), apoptosis genes): -0.052
log2FC (gene MAPK12 (Gene 6300), cell cycle genes): -0.18
MAPT log2FC (gene MAPT (4137), apoptosis genes): 0.031
log2FC MCM4 (gene MCM4 (Gene 4173), cell cycle genes): -0.12
MDM4 log2FC (gene MDM4 (4194), apoptosis genes): -0.144
log2FC (gene MED25 (Gene 81857), cell cycle genes): -0.19
MKL1 log2FC (gene MKL1 (57591), apoptosis genes): 0.300
MKNK1 log2FC (gene MKNK1 (8569), apoptosis genes): 0.102
MNDA log2FC (gene MNDA (4332), apoptosis genes): 0.077
MSX2 log2FC (gene MSX2 (4488), apoptosis genes): 0.052
MT3 log2FC (gene MT3 (4504), apoptosis genes): -0.313
log2FC (gene MYOG (Gene 4656), cell cycle genes): -0.13
NACA log2FC (gene NACA (4666), apoptosis genes): 0.038
log2FC NANOG (gene NANOG (Gene 79923), cell cycle genes): -0.07
log2FC (gene NASP (Gene 4678), cell cycle genes): 0.16
NCF1 log2FC (gene NCF1 (653361), apoptosis genes): 0.093
NCF2 log2FC (gene NCF2 (4688), apoptosis genes): -0.014
log2FC (gene NCOR1 (Gene 9611), cell cycle genes): 0.25
NDUFS3 log2FC (gene NDUFS3 (4722), apoptosis genes): 0.064
NEURL log2FC (gene NEURL (9148), apoptosis genes): 0.053
NEUROD1 log2FC (gene NEUROD1 (4760), apoptosis genes): 0.039
log2FC NEUROG1 (gene NEUROG1 (Gene 4762), cell cycle genes): -0.44
NLE1 log2FC (gene NLE1 (54475), apoptosis genes): 0.195
NME6 log2FC (gene NME6 (10201), apoptosis genes): -0.015
log2FC NME6 (gene NME6 (Gene 10201), cell cycle genes): -0.0153
NOS1AP log2FC (gene NOS1AP (9722), apoptosis genes): 0.021
NOTCH1 log2FC (gene NOTCH1 (4851), apoptosis genes): -0.008
NOX5 log2FC (gene NOX5 (79400), apoptosis genes): 0.00161
log2FC NOX5 (gene NOX5 (Gene 79400), cell cycle genes): 0.00161
NTRK1 log2FC (gene NTRK1 (4914), apoptosis genes): 0.391
log2FC (gene NUMA1 (Gene 4926), cell cycle genes): -0.09
log2FC (gene NUP153 (Gene 9972), cell cycle genes): -0.34
log2FC NUP155 (gene NUP155 (Gene 9631), cell cycle genes): -0.14
log2FC (gene NUP188 (Gene 23511), cell cycle genes): -0.16
NUPR1 log2FC (gene NUPR1 (26471), apoptosis genes): 0.072
OSR1 log2FC (gene OSR1 (130497), apoptosis genes): -0.027
P4HB log2FC (gene P4HB (5034), apoptosis genes): 0.036
log2FC (gene PA2G4 (Gene 5036), cell cycle genes): -0.51
PAFAH2 log2FC (gene PAFAH2 (5051), apoptosis genes): -0.020
PAK6 log2FC (gene PAK6 (56924), apoptosis genes): 0.142
log2FC PAK6 (gene PAK6 (Gene 56924), cell cycle genes): 0.14
log2FC (gene PAPD5 (Gene 64282), cell cycle genes): 0.31
PARK7 log2FC (gene PARK7 (11315), apoptosis genes): 0.018
PAX2 log2FC (gene PAX2 (5076), apoptosis genes): 0.009
log2FC PCNA (gene PCNA (Gene 5111), cell cycle genes): -0.28
PCSK9 log2FC (gene PCSK9 (255738), apoptosis genes): -0.221
log2FC PDCD2L (gene PDCD2L (Gene 84306), cell cycle genes): -0.12
PDCD5 log2FC (gene PDCD5 (9141), apoptosis genes): -0.049
PDCL3 log2FC (gene PDCL3 (79031), apoptosis genes): -0.222
PDE1B log2FC (gene PDE1B (5153), apoptosis genes): 0.019
PDE3A log2FC (gene PDE3A (5139), apoptosis genes): 0.00129
log2FC PDE3A (gene PDE3A (Gene 5139), cell cycle genes): 0.00129
